Experimental data: PMC11855866 (International Journal of Molecular Sciences, 2025)
In brackets after ≈: the same amount, converted by molar mass.

Experiments:
[1] = parameters: method as in Figure S2 [39–71]; conditions: ref Figure S2 [39–71]; cited from earlier work
[2] = Hemolysis (Drabkin's method); type: cell-based; conditions: human, washed erythrocyte (RBC) suspension, 40% hematocrit, pH 7.4, single drug, RT, dark, CTRL− 11.6%
Procedure: Blood samples were collected from healthy human volunteers into Vacutainer tubes containing 3% sodium citrate (BD Biosciences, Warsaw, Poland). Whole blood was centrifuged at 1500 rpm (RCF = 214 g) for 10 min in a CompactStar CS4 centrifuge (VWR) at RT to separate erythrocytes, which were washed twice with PBS (pH 7.4) and centrifuged at 1500 rpm for 5 min at RT after each wash. Hematocrit was measured to adjust the final RBC concentration in PBS (pH 7.4) to 40%. The drugs were then dissolved in the RBC suspension at the final concentrations outlined in Figure 8. RBCs incubated in dH2O were used as a positive control (100% hemolysis), while RBCs in PBS were used as the negative control. A blank sample of PBS without RBCs or drugs provided a baseline for absorbance measurements. Experimental samples, along with positive, negative, and vehicle (0.5% DMSO) controls, were incubated for 4 h at RT in the dark. After incubation, the samples were centrifuged at 1500 rpm for 5 min at RT, and the supernatant was collected to measure hemoglobin release using Drabkin’s method. Absorbance was measured at 540 nm with a Jenway 6305 UV/Vis spectrophotometer (Bibby Scientific, Staffordshire, UK). This study was conducted in triplicate. The percentage of hemolysis was calculated by comparing the absorbance at 540 nm (OD540) of the test sample with that of the positive control using the following formula:(2) % Hemolysis=OD540Test−OD540(Blank)/OD540Total Lysis−OD540(Blank)×100%

4T1 tumors = experiment: 4T1 breast cancer in BALB/c mice; type: in vivo; conditions: GLIM alone 4 mg/kg i.p.
Procedure: Six- to eight-week-old female BALB/c mice (Charles River Breeding Laboratories, Wilmington, MA, USA) were bred at the Maria Sklodowska-Curie National Research Institute of Oncology, Gliwice Branch (Gliwice, Poland), under a HEPA-filtered Allentown's IVC System (Allentown Caging Equipment Co., Allentown, NJ, USA). All efforts to minimize animal suffering were made by qualified personnel. This study was carried out in strict accordance with the recommendations in the Guide for the Care and Use of Laboratory Animals of the National Institutes of Health. The protocols were approved by the Committee on the Ethics of Animal Experiments of the Local Ethics Commission (Medical University of […], Poland; Permit No. 22/2024). BALB/c mice were injected subcutaneously in the lower flank with 2 × 10^5 4T1 cells suspended in 100 μL PBS. […] Each treatment was administered a total of five times.

HuH7 cells = experiment: MTT cytotoxicity / synergy assay, 72 h, HuH7; conditions: Homo sapiens, Huh-7, 72 h, read-out: IC50 Value in Specific Cell Line, HuH7
Procedure: (§1) The synergistic effects of drug combinations were studied in various cancer cell lines, including MCF-7 (human breast cancer), A549 (human lung cancer), U-87 MG (human malignant glioma), HepG2 (human liver cancer), and HUH7 (human liver cancer). HMEC-1, an immortalized human microvascular endothelial cell line, was used as a model for normal cells. All cell lines were purchased from ATCC (Rockville, MD, USA).
(§2) The cancer cell lines were cultured in Dulbecco’s Modified Eagle’s Medium (DMEM; Sigma-Aldrich) supplemented with 10% FBS and 1% penicillin/streptomycin mixture (10,000 U/mL penicillin and 10 mg/mL streptomycin; Sigma-Aldrich) at 37 °C in a humidified atmosphere with 5% CO2.
(§3) For the MTT assay, exponentially growing cells were seeded into 96-well plates at a density of 5 × 10³ cells per well. After 24 h of incubation, the medium was replaced with 100 µL of fresh medium containing the tested compounds. After 72 h of treatment, cell viability was assessed using the MTT assay as described earlier. […] IC50 values were calculated using GraphPad Prism 9 software (GraphPad Software).

HMEC-1 cells = experiment: MTT cytotoxicity / synergy assay, 72 h, HMEC-1; conditions: Homo sapiens, HMEC-1, 72 h, read-out: IC50 Value in Specific Cell Line, HMEC-1
Procedure: as §1, §2, §3

[3] = cited from earlier work

CCC1=C(C)CN(C(=O)NCCc2ccc(S(=O)(=O)NC(=O)N[C@H]3CC[C@H](C)CC3)cc2)C1=O [GLIM, Glimepiride]
solubility [1]: 12.2 µM (≈ 5.99 µg/mL) | hemolysis at 4 h [2]: 11.2 to 11.9% | body weight compared to controls (4T1 tumors): no significant change in body weight | tumor size compared to untreated controls (4T1 tumors): no reduction in tumor size | IC50 (HuH7 cells): 476 ± 7 µM | CC50 (HMEC-1 cells): 136 ± 5.1 µM | protein-bound in plasma [3]: 99.4%
